Data from ChEMBL document CHEMBL5143574, “Unraveling the anti-virulence potential and antifungal efficacy of 5-aminotetrazoles using the zebrafish model of disseminated candidiasis” (Eur J Med Chem, 2022).
In brackets after ≈: the same amount, converted by molar mass. Activity calls are given as the source filed them. The calls are words filed in the database; no cut-off is given here.

How the values were obtained:
Candida albicans [1] = experiment: Antifungal activity against Candida albicans SC5314 assessed as inhibition of fungal growth incubated for 24 hrs by broth microdilution assay; assay type: functional
[2] = Toxicity in zebrafish embryos assessed as mortality treated at 6 hpf and measured at 120 hpf by stereomicroscopic analysis; set-up: species or system Danio rerio; conditions: in vivo
Candida albicans [3] = experiment: Anti-virulence activity against Candida albicans SC5314 assessed as inhibition of fungal filamentation by measuring reduction in hyphae formation in YPS medium at 5 uM incubated for 3 to 5 days by stereomicroscopic analysis; assay type: functional, organism-based; conditions: time 3-5 day
Candida albicans [4] = experiment: Anti-virulence activity against Candida albicans SC5314 assessed as inhibition of fungal filamentation by measuring reduction in hyphae formation in Lee medium at 5 uM incubated for 3 to 5 days by stereomicroscopic analysis; assay type: functional, organism-based; conditions: time 3-5 day
Candida albicans [5] = experiment: Anti-virulence activity against Candida albicans SC5314 assessed as inhibition of fungal filamentation by measuring reduction in hyphae formation in Spider medium at 5 uM incubated for 3 to 5 days by stereomicroscopic analysis; assay type: functional, organism-based; conditions: time 3-5 day
Candida albicans [6] = experiment: Anti-virulence activity against Candida albicans SC5314 assessed as inhibition of fungal filamentation by measuring reduction in hyphae formation in RPMI medium at 5 uM incubated for 3 to 5 days by stereomicroscopic analysis; assay type: functional, organism-based; conditions: time 3-5 day
Candida albicans [7] = experiment: Anti-virulence activity against Candida albicans SC5314 assessed as inhibition of fungal filamentation by measuring reduction in hyphae formation in YPS plus uridine medium at 5 uM incubated for 3 to 5 days by stereomicroscopic analysis; assay type: functional, organism-based; conditions: time 3-5 day
[8] = Toxicity in zebrafish embryos assessed as toxic responses at 200 uM treated at 6 hpf and measured at 120 hpf by stereomicroscopic analysis; set-up: species or system Danio rerio; conditions: in vivo, 24 h
[9] = Toxicity against zebrafish embryo infected with 53-75 RFP expressing cells of Candida albicans M137 assessed as mortality at 2.5 to 10 uM treated at 1 hr post-infection and measured on day 4 post-infection; set-up: species or system Danio rerio; conditions: 96 h, dose 2.5-10 µM, time 4 day
Candida albicans [10] = experiment: Anti-virulence activity against Candida albicans SC5314 assessed as inhibition of fungal filamentation by measuring reduction in hyphae formation in SLAD medium upto 10 uM incubated for 3 to 5 days by stereomicroscopic analysis; assay type: functional, organism-based; conditions: time 3-5 day
Candida albicans [11] = experiment: Anti-virulence activity against Candida albicans SC5314 assessed as inhibition of fungal filamentation by measuring reduction in hyphae formation in YPS medium upto 10 uM incubated for 3 to 5 days by stereomicroscopic analysis; assay type: functional, organism-based; conditions: time 3-5 day
Candida albicans [12] = experiment: Anti-virulence activity against Candida albicans SC5314 assessed as inhibition of fungal filamentation by measuring reduction in hyphae formation in YPS plus uridine medium upto 10 uM incubated for 3 to 5 days by stereomicroscopic analysis; assay type: functional, organism-based; conditions: time 3-5 day
Candida albicans [13] = experiment: Anti-virulence activity against Candida albicans SC5314 assessed as inhibition of fungal filamentation by measuring reduction in hyphae formation in Lee medium upto 10 uM incubated for 3 to 5 days by stereomicroscopic analysis; assay type: functional, organism-based; conditions: time 3-5 day
Candida albicans [14] = experiment: Anti-virulence activity against Candida albicans SC5314 assessed as inhibition of fungal filamentation by measuring reduction in hyphae formation in Spider medium upto 10 uM incubated for 3 to 5 days by stereomicroscopic analysis; assay type: functional, organism-based; conditions: time 3-5 day
Candida albicans [15] = experiment: Anti-virulence activity against Candida albicans SC5314 assessed as inhibition of fungal filamentation by measuring reduction of hyphae formation in RPMI medium upto 10 uM incubated for 3 to 5 days by stereomicroscopic analysis; assay type: functional, organism-based; conditions: time 3-5 day
Candida albicans [16] = experiment: Anti-virulence activity against Candida albicans SC5314 assessed as inhibition of fungal filamentation by measuring reduction in hyphae formation in GlcNAc medium upto 10 uM incubated for 3 to 5 days by stereomicroscopic analysis; assay type: functional, organism-based; conditions: time 3-5 day
Candida albicans [17] = experiment: Anti-virulence activity against Candida albicans SC5314 assessed as inhibition of fungal filamentation by measuring reduction of hyphae formation in GlcNAc medium at 1.3 uM incubated for 3 to 5 days by stereomicroscopic analysis; assay type: functional, organism-based; conditions: time 3-5 day
Candida albicans [18] = experiment: Anti-virulence activity against Candida albicans SC5314 assessed as inhibition of fungal filamentation by measuring reduction of hyphae formation in RPMI medium at 1.3 uM incubated for 3 to 5 days by stereomicroscopic analysis; assay type: functional, organism-based; conditions: time 3-5 day
Candida albicans [19] = experiment: Anti-virulence activity against Candida albicans SC5314 assessed as inhibition of fungal filamentation by measuring reduction of hyphae formation in YPS plus uridine medium at 1.3 uM incubated for 3 to 5 days by stereomicroscopic analysis; assay type: functional, organism-based; conditions: time 3-5 day
Candida albicans [20] = experiment: Anti-virulence activity against Candida albicans SC5314 assessed as inhibition of fungal filamentation by measuring reduction of hyphae formation in Lee medium at 1.3 uM incubated for 3 to 5 days by stereomicroscopic analysis; assay type: functional, organism-based; conditions: time 3-5 day
Candida albicans [21] = experiment: Anti-virulence activity against Candida albicans SC5314 assessed as inhibition of fungal filamentation by measuring reduction of hyphae formation in SLAD medium at 1.3 uM incubated for 3 to 5 days by stereomicroscopic analysis; assay type: functional, organism-based; conditions: time 3-5 day
Candida albicans [22] = experiment: Anti-virulence activity against Candida albicans SC5314 assessed as inhibition of fungal filamentation by measuring reduction of hyphae formation in YPS medium at 1.3 uM incubated for 3 to 5 days by stereomicroscopic analysis; assay type: functional, organism-based; conditions: time 3-5 day
Candida albicans [23] = experiment: Anti-virulence activity against Candida albicans SC5314 assessed as inhibition of fungal filamentation by measuring reduction of hyphae formation in Spider medium at 1.3 uM incubated for 3 to 5 days by stereomicroscopic analysis; assay type: functional, organism-based; conditions: time 3-5 day
[24] = Hepatotoxicity in zebrafish embryos assessed as liver darkening at 25 uM treated at 6 hpf and measured at 120 hpf by stereomicroscopic analysis; assay type: toxicity, Danio rerio; conditions: in vivo

SMILES	MIC (Candida albicans [1]) [µM]	LC50 [2] [µM]	Activity (Candida albicans [3])	Activity (Candida albicans [4])	Activity (Candida albicans [5])	Activity (Candida albicans [6])	Activity (Candida albicans [7])	further results
Nc1nnn(Cc2ccccc2)n1	> 200	> 200	–	–	–	–	–	–
CCCn1nnnc1Nc1ccccc1	> 200	> 200	Active	Active	Active	Active	Active	–
O=Cc1ccc(Nc2nnnn2Cc2ccccc2)cc1	> 200	> 200	Active	Active	Active	Active	Active	–
Nc1nnnn1Cc1ccccc1	> 200	> 200	Active	Active	Active	Active	Active	–
c1ccc(Nc2nn[nH]n2)cc1	> 200	> 200	–	–	–	–	–	Activity [8]: Non-Toxic
CCCn1nnnc1N	> 200	> 200	Active	Active	Active	Active	Active	Activity [9]: Non-Toxic
COC(=O)c1cccc(Nc2nnnn2Cc2ccccc2)c1	35.4 (≈ 11 µg/mL)	–	–	–	–	–	–	–
CCCn1nnc(Nc2ccccc2)n1	> 200	> 200	Active	Active	Active	Active	Active	–
COc1ccc(Nc2nnnn2Cc2ccccc2)cc1	> 200	> 200	Active	Active	Active	Active	Active	–
CCCn1nnc(N)n1	> 200	> 200	–	–	–	–	–	–
Nc1nnn[nH]1	> 200	> 200	Active	Active	Active	Active	Active	Activity [9]: Non-Toxic; Activity [8]: Non-Toxic
CN(C)CCCNc1nccc(Nc2nnnn2Cc2ccccc2)n1	> 200	> 200	–	–	–	–	–	–
c1ccc(Cn2nnnc2Nc2ccccc2)cc1	> 200	> 200	–	–	–	–	–	Activity (Candida albicans [10]): Active; Activity (Candida albicans [11]): Active; Activity (Candida albicans [12]): Active; Activity (Candida albicans [13]): Active; Activity (Candida albicans [14]): Active; Activity (Candida albicans [15]): Active; Activity (Candida albicans [16]): Active
O=[N+]([O-])c1ccc(Nc2nnnn2Cc2ccccc2)cc1	> 200	> 200	–	–	–	–	–	–
c1ccc(Cn2nnnc2Nc2cccnc2)cc1	> 200	> 200	–	–	–	–	–	–
Cc1cc(Cl)ccc1Nc1nnnn1Cc1ccccc1	6.4 (≈ 1.92 µg/mL)	–	–	–	–	–	–	–
CC(=O)c1ccc(Nc2nnnn2Cc2ccccc2)cc1	> 200	> 200	–	–	–	–	–	–
Nc1nnn(CCC23CC4CC(CC(C4)C2)C3)n1	> 200	> 200	–	–	–	–	–	Activity (Candida albicans [17]): Active; Activity (Candida albicans [10]): Active; Activity (Candida albicans [18]): Active; Activity (Candida albicans [11]): Active; Activity (Candida albicans [12]): Active; Activity (Candida albicans [19]): Active; Activity (Candida albicans [13]): Active; Activity (Candida albicans [14]): Active; Activity (Candida albicans [20]): Active; Activity (Candida albicans [21]): Active; Activity (Candida albicans [15]): Active; Activity (Candida albicans [22]): Active; Activity (Candida albicans [16]): Active; Activity (Candida albicans [23]): Active
Clc1nccc(Nc2nnnn2Cc2ccccc2)n1	35.4 (≈ 10.2 µg/mL)	–	–	–	–	–	–	Activity [24]: Toxic
CCCn1nnnc1Nc1ccnc(Cl)n1	> 200	> 200	–	–	–	–	–	Activity (Candida albicans [10]): Active; Activity (Candida albicans [11]): Active; Activity (Candida albicans [12]): Active; Activity (Candida albicans [13]): Active; Activity (Candida albicans [14]): Active; Activity (Candida albicans [15]): Active; Activity (Candida albicans [16]): Active
c1ccc(Nc2nnnn2-c2ccccc2)cc1	194 (≈ 46 µg/mL)	–	Active	Active	Active	Active	Active	–
Clc1ccc(Nc2nnnn2Cc2ccccc2)cc1	> 200	> 200	–	–	–	–	–	–
c1ccc(Nc2nnn(CCC34CC5CC(CC(C5)C3)C4)n2)cc1	> 200	> 200	Active	Active	Active	Active	Active	–
Clc1cccc(Nc2nnnn2Cc2ccccc2)c1	> 200	> 200	–	–	–	–	–	–
N#Cc1ccc(Nc2nnnn2Cc2ccccc2)cc1	> 200	> 200	–	–	–	–	–	–
c1ccc(Cn2nnc(Nc3ccccc3)n2)cc1	> 200	> 200	Active	Active	Active	Active	Active	–
Nc1nnnn1-c1ccccc1 [FENAMOLE]	> 200	> 200	Active	Active	Active	Active	Active	–
